Where a name gives a salt, the structure may show the parent alone. Read-outs that look alike come from different tables or passages of the source.
How the values were obtained:
[1] = biological target: T1, SARS-CoV-2 PLpro (nsp3 1564–1878) (Severe acute respiratory syndrome coronavirus 2, UniProt P0DTD1); assay: biochemical; set-up: FRET-quenched peptide (Pro3) cleavage by PLpro, 10 min pre-incubation, slope over 20 min, normalised to no-compound control; settings: low concentration screen, read-out: % of control remaining
[2] = biological target: T1, SARS-CoV-2 PLpro (nsp3 1564–1878); assay: biochemical; set-up: FRET-quenched peptide (Pro3) cleavage by PLpro, 10 min pre-incubation, slope over 20 min, normalised to no-compound control; settings: high concentration screen, read-out: % of control remaining

CC(N)C12CC3CC(CC(C3)C1)C2 (stereo not shown) [Rimantadine]
remaining activity at 1.25 µM ([1]; Well no.=2203): 99.7%
remaining activity at 3.75 µM ([2]; Well no.=2203): 99.8%

CC[C@H](C(=O)N1CCCC[C@H]1C(=O)O[C@H](CCc1ccc(OC)c(OC)c1)c1cccc(OCC(=O)NCCNC(=O)COc2cccc([C@@H](CCc3ccc(OC)c(OC)c3)OC(=O)[C@@H]3CCCCN3C(=O)[C@@H](CC)c3cc(OC)c(OC)c(OC)c3)c2)c1)c1cc(OC)c(OC)c(OC)c1 [Rimiducid]
remaining activity at 1.25 µM ([1]; Well no.=7156): 94.6%
remaining activity at 1.25 µM ([1]; Well no.=8596): 96.4%
remaining activity at 3.75 µM ([2]; Well no.=7156): 91.8%
remaining activity at 3.75 µM ([2]; Well no.=8596): 89.6%

Cc1c(C(=O)NN2CCCCC2)nn(-c2ccc(Cl)cc2Cl)c1-c1ccc(Cl)cc1 [Rimonabant (Hydrochloride)]
remaining activity at 1.25 µM ([1]; Well no.=8011): 99.6%
remaining activity at 3.75 µM ([2]; Well no.=8011): 90.1%

Cc1c(C(=O)NN2CCCCC2)nn(-c2ccc(Cl)cc2Cl)c1-c1ccc(Cl)cc1 [Rimonabant]
remaining activity at 1.25 µM ([1]; Well no.=8438): 92.2%
remaining activity at 3.75 µM ([2]; Well no.=8438): 97%

COC(=O)N(C)c1c(N)nc(-c2nn(Cc3ccccc3F)c3ncccc23)nc1N [Riociguat]
remaining activity at 1.25 µM ([1]; Well no.=6654): 107%
remaining activity at 3.75 µM ([2]; Well no.=6654): 108%

O=P(O)(O)C(O)(Cc1cccnc1)P(=O)(O)O [Risedronate sodium]
remaining activity at 1.25 µM ([1]; Well no.=4819): 104%
remaining activity at 3.75 µM ([2]; Well no.=4819): 102%

O=P(O)(O)C(O)(Cc1cccnc1)P(=O)(O)O [Risedronic acid]
remaining activity at 1.25 µM ([1]; Well no.=1989): 97.8%
remaining activity at 3.75 µM ([2]; Well no.=1989): 96.9%

Cc1nc2n(c(=O)c1CCN1CCC(c3noc4cc(F)ccc34)CC1)CCCC2 [Risperidone]
remaining activity at 1.25 µM ([1]; Well no.=1306): 103%
remaining activity at 1.25 µM ([1]; Well no.=1606): 100%
remaining activity at 3.75 µM ([2]; Well no.=1306): 103%
remaining activity at 3.75 µM ([2]; Well no.=1606): 102%

Cc1nc2sccn2c(=O)c1CCN1CCC(=C(c2ccc(F)cc2)c2ccc(F)cc2)CC1 [Ritanserin]
remaining activity at 1.25 µM ([1]; Well no.=1352): 94.6%
remaining activity at 3.75 µM ([2]; Well no.=1352): 96.7%

CC(C)c1nc(CN(C)C(=O)N[C@H](C(=O)N[C@@H](Cc2ccccc2)C[C@H](O)[C@H](Cc2ccccc2)NC(=O)OCc2cncs2)C(C)C)cs1 [Ritonavir]
remaining activity at 1.25 µM ([1]; Well no.=4721): 102%
remaining activity at 3.75 µM ([2]; Well no.=4721): 102%

O=C(NC[C@H]1CN(c2ccc(N3CCOCC3=O)cc2)C(=O)O1)c1ccc(Cl)s1 [Rivaroxaban]
remaining activity at 1.25 µM ([1]; Well no.=8390): 93.8%
remaining activity at 3.75 µM ([2]; Well no.=8390): 88.4%

CCN(C)C(=O)Oc1cccc([C@H](C)N(C)C)c1 [Rivastigmine]
remaining activity at 1.25 µM ([1]; Well no.=1722): 95.2%
remaining activity at 3.75 µM ([2]; Well no.=1722): 96.3%

CN(C)CCc1c[nH]c2ccc(Cn3cncn3)cc12 [Rizatriptan (benzoate)]
remaining activity at 1.25 µM ([1]; Well no.=6174): 93.4%
remaining activity at 3.75 µM ([2]; Well no.=6174): 89.9%

NC(=O)c1ccc(OCC(O)CN2CC=C(c3ccc(F)cc3)CC2)cc1 (stereo not shown) [Ro 8-4304]
remaining activity at 1.25 µM ([1]; Well no.=1160): 98.3%
remaining activity at 3.75 µM ([2]; Well no.=1160): 99.3%

Cc1ncc(CN2CC=C(c3ccccc3)CC2)c(N)n1 [Ro 10-5824 (dihydrochloride)]
remaining activity at 1.25 µM ([1]; Well no.=7039): 105%
remaining activity at 3.75 µM ([2]; Well no.=7039): 106%

NCCNC(=O)c1ccc(Cl)cc1 [Ro 16-6491 hydrochloride]
remaining activity at 1.25 µM ([1]; Well no.=1448): 94.7%
remaining activity at 3.75 µM ([2]; Well no.=1448): 92.5%

CCCCOc1cc(CC2CNC(=O)N2)ccc1OC (stereo not shown) [Ro 20-1724]
remaining activity at 1.25 µM ([1]; Well no.=225): 102%
remaining activity at 3.75 µM ([2]; Well no.=225): 100%

C[C@@H](CN1CCC(Cc2ccccc2)CC1)[C@@H](O)c1ccc(O)cc1 [Ro 25-6981 hydrochloride]
remaining activity at 1.25 µM ([1]; Well no.=1350): 99.4%
remaining activity at 3.75 µM ([2]; Well no.=1350): 102%

Cn1cc(C2=C(c3cn(CCCSC(=N)N)c4ccccc34)C(=O)NC2=O)c2ccccc21 [Ro 31-8220 mesylate - 3-[3-[2,5-Dihydro-4-(1-methyl-1H-indol-3-yl)-2,5-dioxo-1H-pyrrol-3-yl]-1H-indol-1-yl]propyl carbamimidothioic acid ester mesylate]
remaining activity at 1.25 µM ([1]; Well no.=2482): 104%
remaining activity at 3.75 µM ([2]; Well no.=2482): 102%

O=C(c1cc(O)c(O)c([N+](=O)[O-])c1)c1ccccc1F [Ro 41-0960]
remaining activity at 1.25 µM ([1]; Well no.=1162): 102%
remaining activity at 3.75 µM ([2]; Well no.=1162): 104%

NCCNC(=O)c1ncsc1-c1cccc(F)c1 [Ro 41-1049 hydrochloride]
remaining activity at 1.25 µM ([1]; Well no.=1496): 95.5%
remaining activity at 3.75 µM ([2]; Well no.=1496): 94.1%
